# Assay results published in patent publication US5043353A, “A80789 polyether antibiotic” (Eli Lilly and Company, priority 1989, dated 1991).
# Positions of bridges follow the written chain, without caps; N, C: chain ends. Non-standard residues stand in square brackets, D forms with d. Residues, ends and D or L forms follow the SMILES beside them. *: point of attachment. Ileψ(thiazoline)Cys = CC[C@H](C)[C@H](N)C1=N[C@H](C(=O)*)CS1; dOrn = NCCC[C@@H](N)C(=O)O
# Tests used:
# [1] = tested on: coccidiosis; conditions: alone; Science, 122: 244 (1955); cited from earlier work
# [2] = tested on: Enterobacter aerogenes C32; assay: Standard agar-dilution assay, MIC; assay type: cell-based; conditions: Klebsiella aerogenes, 24-hour incubation
# Procedure: (§1) The A80789 compounds have antibacterial and anticoccidial activity. A80789 compounds are especially active against anaerobic bacteria. The minimal inhibitory concentrations (MIC's) at which A80789 inhibits various bacteria, as determined by standard agar-dilution assays, are summarized in Tables III and IV. End points were read after 24-hour incubation.
# [3] = tested on: Enterobacter aerogenes EB17; assay: Standard agar-dilution assay, MIC; assay type: cell-based; conditions: Klebsiella aerogenes, 24-hour incubation
# Procedure: as §1
# [4] = tested on: Escherichia coli EC14; assay: Standard agar-dilution assay, MIC; assay type: cell-based; conditions: 24-hour incubation
# Procedure: as §1
# [5] = tested on: Escherichia coli N10; assay: Standard agar-dilution assay, MIC; assay type: cell-based; conditions: 24-hour incubation
# Procedure: as §1
# [6] = tested on: Escherichia coli TEM; assay: Standard agar-dilution assay, MIC; assay type: cell-based; conditions: 24-hour incubation
# Procedure: as §1
# [7] = tested on: Haemophilus influenzae 76; assay: Standard agar-dilution assay, MIC; assay type: cell-based; conditions: 24-hour incubation
# Procedure: as §1
# [8] = tested on: Haemophilus influenzae C.L.; assay: Standard agar-dilution assay, MIC; assay type: cell-based; conditions: 24-hour incubation
# Procedure: as §1
# [9] = tested on: Klebsiella sp.; assay: Standard agar-dilution assay, MIC; assay type: cell-based; conditions: 24-hour incubation
# Procedure: as §1
# [10] = tested on: Proteus sp.; assay: Standard agar-dilution assay, MIC; assay type: cell-based; conditions: 24-hour incubation
# Procedure: as §1
# [11] = tested on: Pseudomonas aeruginosa PS18; assay: Standard agar-dilution assay, MIC; assay type: cell-based; conditions: 24-hour incubation
# Procedure: as §1
# [12] = tested on: Pseudomonas aeruginosa PS72; assay: Standard agar-dilution assay, MIC; assay type: cell-based; conditions: 24-hour incubation
# Procedure: as §1
# [13] = tested on: Pseudomonas aeruginosa X239; assay: Standard agar-dilution assay, MIC; assay type: cell-based; conditions: 24-hour incubation
# Procedure: as §1
# [14] = tested on: Pseudomonas aeruginosa X528; assay: Standard agar-dilution assay, MIC; assay type: cell-based; conditions: 24-hour incubation
# Procedure: as §1
# [15] = tested on: Salmonella sp; assay: Standard agar-dilution assay, MIC; assay type: cell-based; conditions: 24-hour incubation
# Procedure: as §1
# [16] = tested on: Serratia marcescens X99; assay: Standard agar-dilution assay, MIC; assay type: cell-based; conditions: 24-hour incubation
# Procedure: as §1
# [17] = tested on: Shigella sonnei; assay: Standard agar-dilution assay, MIC; assay type: cell-based; conditions: 24-hour incubation
# Procedure: as §1
# [18] = tested on: Staphylococcus aureus S13E; assay: Standard agar-dilution assay, MIC; assay type: cell-based; conditions: 24-hour incubation
# Procedure: as §1
# [19] = tested on: Staphylococcus aureus V41; assay: Standard agar-dilution assay, MIC; assay type: cell-based; conditions: 24-hour incubation
# Procedure: as §1
# [20] = tested on: Staphylococcus aureus X1.1; assay: Standard agar-dilution assay, MIC; assay type: cell-based; conditions: 24-hour incubation
# Procedure: as §1
# [21] = tested on: Staphylococcus aureus X400; assay: Standard agar-dilution assay, MIC; assay type: cell-based; conditions: 24-hour incubation
# Procedure: as §1
# [22] = tested on: Staphylococcus epidermidis 222; assay: Standard agar-dilution assay, MIC; assay type: cell-based; conditions: 24-hour incubation
# Procedure: as §1
# [23] = tested on: Staphylococcus epidermidis Epi 1; assay: Standard agar-dilution assay, MIC; assay type: cell-based; conditions: EPI1, 24-hour incubation
# Procedure: as §1
# [24] = tested on: Streptococcus faecalis 2041; assay: Standard agar-dilution assay, MIC; assay type: cell-based; conditions: 24-hour incubation, reclassified as Enterococcus faecalis 2041
# Procedure: as §1
# [25] = tested on: Streptococcus faecium X66; assay: Standard agar-dilution assay, MIC; assay type: cell-based; conditions: 24-hour incubation, reclassified as Enterococcus faecium X66
# Procedure: as §1
# [26] = tested on: Streptococcus pneumoniae Park 1; assay: Standard agar-dilution assay, MIC; assay type: cell-based; conditions: PARK1, 24-hour incubation
# Procedure: as §1
# [27] = tested on: Streptococcus pyogenes C203; assay: Standard agar-dilution assay, MIC; assay type: cell-based; conditions: 24-hour incubation
# Procedure: as §1
# [28] = tested on: Bacteroides corredens 1874; assay: Standard agar-dilution assay, MIC (anaerobic bacteria); assay type: cell-based; conditions: 24-hour incubation
# Procedure: as §1
# [29] = tested on: Bacteroides fragilis 111; assay: as above; assay type: cell-based; conditions: 24-hour incubation
# Procedure: as §1
# [30] = tested on: Bacteroides fragilis 1877; assay: as above; assay type: cell-based; conditions: 24-hour incubation
# Procedure: as §1
# [31] = tested on: Bacteroides fragilis 1936B; assay: as above; assay type: cell-based; conditions: 24-hour incubation
# Procedure: as §1
# [32] = tested on: Bacteroides melaninogenicus 1856/28; assay: as above; assay type: cell-based; conditions: Prevotella intermedia, 24-hour incubation
# Procedure: as §1
# [33] = tested on: Bacteroides melaninogenicus 2736; assay: as above; assay type: cell-based; conditions: 24-hour incubation
# Procedure: as §1
# [34] = tested on: Bacteroides thetaiotaomicron 1438; assay: as above; assay type: cell-based; conditions: 24-hour incubation
# Procedure: as §1
# [35] = tested on: Bacteroides vulgatis 1211; assay: as above; assay type: cell-based; conditions: 24-hour incubation
# Procedure: as §1
# [36] = tested on: Clostridium difficile 2994; assay: as above; assay type: cell-based; conditions: Clostridioides difficile, 24-hour incubation
# Procedure: as §1
# [37] = tested on: Clostridium septicum 1128; assay: as above; assay type: cell-based; conditions: 24-hour incubation
# Procedure: as §1
# [38] = tested on: Eubacterium aerofaciens 1235; assay: as above; assay type: cell-based; conditions: Collinsella aerofaciens, 24-hour incubation
# Procedure: as §1
# [39] = tested on: Fusobacterium necrophorum 6054A; assay: as above; assay type: cell-based; conditions: 24-hour incubation
# Procedure: as §1
# [40] = tested on: Fusobacterium symbiosum 1470; assay: as above; assay type: cell-based; conditions: 24-hour incubation
# Procedure: as §1
# [41] = tested on: Peptococcus asaccharolyticus 1302; assay: as above; assay type: cell-based; conditions: Peptoniphilus asaccharolyticus, 24-hour incubation
# Procedure: as §1
# [42] = tested on: Peptococcus prevoti 1281; assay: as above; assay type: cell-based; conditions: 24-hour incubation
# Procedure: as §1
# [43] = tested on: Peptostreptococcus anaerobius 1428; assay: as above; assay type: cell-based; conditions: 24-hour incubation
# Procedure: as §1
# [44] = tested on: Peptostreptococcus intermedius 1264; assay: as above; assay type: cell-based; conditions: 24-hour incubation
# Procedure: as §1
# [45] = tested on: Propionibacterium acnes 79; assay: as above; assay type: cell-based; conditions: Cutibacterium acnes, 24-hour incubation
# Procedure: as §1
# [46] = tested on: Clostridium perfringens 81; assay: microbe, parasite or virus in culture; assay type: cell-based; conditions: Clostridium perfringens, 81, 24 h
# [47] = tested on: Eimeria acervulina; assay: Feeding experiments in infected chicks; assay type: in vivo; conditions: in the feed of young chickens; chicks infected with Eimeria acervulina
# [48] = tested on: HSV I; assay: microbe, parasite or virus in culture; assay type: cell-based, Herpes (HSV I); conditions: read-out: level at which active
# [49] = tested on: HSV II; assay: microbe, parasite or virus in culture; assay type: cell-based, Herpes (HSV II); conditions: tissue-culture tests; read-out: level at which active
# [50] = tested on: Vaccina; assay: microbe, parasite or virus in culture; assay type: cell-based; conditions: tissue-culture tests; read-out: level at which active
# [51] = tested on: Great Lakes influenza; assay: microbe, parasite or virus in culture; assay type: cell-based; conditions: read-out: level at which active
# [52] = tested on: Para influenza; assay: microbe, parasite or virus in culture; assay type: cell-based; conditions: read-out: level at which active
# [53] = tested on: Rhino viruses; assay: microbe, parasite or virus in culture; assay type: cell-based; conditions: tissue-culture tests; read-out: level at which active
# [54] = tested on: Pseudorabies virus; assay: microbe, parasite or virus in culture; assay type: cell-based; conditions: Suid alphaherpesvirus 1, read-out: level at which active
# [55] = tested on: adult housefly; assay: Insecticidal activity; assay type: in vivo
# From the text: The A80789 compounds are also useful as insecticides. For example, A80789 is active against adult housefly at levels as low as 100 ppm.
# [56] = Solubility; assay type: physicochemical; conditions: free acid form
# [57] = tested on: Culture A80789; assay: Antibiotic sensitivity disc test on the producing culture; assay type: cell-based, Streptomyces hygroscopicus; conditions: ISP No. 2 agar
# Procedure: Resistance to antibiotics was measured by padding antibiotic sensitivity discs onto the surface of seeded ISP No. 2 agar plates. Resistance was scored as (+) when no zone of inhibition was observed and as (-) when a zone of inhibition was observed.
compound,measurement,setting,value
"O=C(Nc1ccc([N+](=O)[O-])cc1)Nc1ccc([N+](=O)[O-])cc1 [4,4'-dinitrocarbanilide]",anticoccidial activity,[1],exhibits anticoccidial activity
COC1CCC(OC2C(C)C3(OC(CC4OC(O)(C(C)C(=O)O)C(C)C(OC)C4C)CC(OC)C3C)OC2(C)C2CCC(C3CCC(C4OC(C)(O)C(C)CC4C)O3)O2)OC1C (centres unmarked) [A80789],MIC,[2],> 128 µg/mL
same,MIC,[3],> 128 µg/mL
same,MIC,[4],> 128 µg/mL
same,MIC,[5],> 128 µg/mL
same,MIC,[6],> 128 µg/mL
same,MIC,[7],> 128 µg/mL
same,MIC,[8],> 128 µg/mL
same,MIC,[9],> 128 µg/mL
same,MIC,[10],> 128 µg/mL
same,MIC,[11],> 128 µg/mL
same,MIC,[12],> 128 µg/mL
same,MIC,[13],> 128 µg/mL
same,MIC,[14],> 128 µg/mL
same,MIC,[15],> 128 µg/mL
same,MIC,[16],> 128 µg/mL
same,MIC,[17],> 128 µg/mL
same,MIC,[18],0.25 µg/mL
same,MIC,[19],0.25 µg/mL
same,MIC,[20],0.25 µg/mL
same,MIC,[21],0.25 µg/mL
same,MIC,[22],0.125 µg/mL
same,MIC,[23],0.25 µg/mL
same,MIC,[24],> 128 µg/mL
same,MIC,[25],> 128 µg/mL
same,MIC,[26],0.03 µg/mL
same,MIC,[27],0.03 µg/mL
same,MIC,[28],8 µg/mL
same,MIC,[29],8 µg/mL
same,MIC,[30],8 µg/mL
same,MIC,[31],8 µg/mL
same,MIC,[32],4 µg/mL
same,MIC,[33],8 µg/mL
same,MIC,[34],128 µg/mL
same,MIC,[35],1 µg/mL
same,MIC,[36],0.5 µg/mL
same,MIC,[37],0.5 µg/mL
same,MIC,[38],0.5 µg/mL
same,MIC,[39],2 µg/mL
same,MIC,[40],2 µg/mL
same,MIC,[41],≤ 0.03 µg/mL
same,MIC,[42],0.125 µg/mL
same,MIC,[43],0.25 µg/mL
same,MIC,[44],0.125 µg/mL
same,MIC,[45],0.25 µg/mL
same,MIC,[46],0.5 µg/mL
same,level in feed (as low as) that caused a reduction in the number of lesions,[47],100 ppm
same,minimal effective concentration,[48],2000 µg/mL
same,minimal effective concentration,[49],2000 µg/mL
same,minimal effective concentration,[50],2000 µg/mL
same,minimal effective concentration,[51],2000 µg/mL
same,minimal effective concentration,[52],2000 µg/mL
same,minimal effective concentration,[53],2000 µg/mL
same,minimal effective concentration,[54],< 0.078 µg/mL
same,level (as low as) at which active,[55],100 ppm
same,Solubility,[56]; in water,Insoluble
same,Solubility,"[56]; lower alcohols such as methanol, acetone, ethyl acetate, chloroform, diethyl ether, benzene, toluene, warm hexane",soluble
CC[C@H](C)[C@H](N)C1=N[C@H](C(=O)N[C@@H](CC(C)C)C(=O)N[C@H](CCC(=O)O)C(=O)N[C@H](C(=O)N[C@H]2CCCCNC(=O)[C@H](CC(N)=O)NC(=O)[C@@H](CC(=O)O)NC(=O)[C@H](Cc3cnc[nH]3)NC(=O)[C@@H](Cc3ccccc3)NC(=O)[C@H]([C@@H](C)CC)NC(=O)[C@@H](CCCN)NC2=O)[C@@H](C)CC)CS1 [bacitracin] ({Ileψ(thiazoline)Cys}-L[dE]IK[dOrn]I[dF]H[dD]N; lactam 4-C),Resistance of culture to antibiotic,[57]; disc 10 units,sensitive
CC(=O)OCC1=C(C(=O)O)N2C(=O)[C@@H](NC(=O)Cc3cccs3)[C@H]2SC1 [cephalothin],Resistance of culture to antibiotic,[57]; disc 30 mcg,sensitive
CCC[C@@H]1C[C@@H](C(=O)N[C@@H]([C@H]2O[C@H](SC)[C@H](O)[C@@H](O)[C@H]2O)[C@@H](C)O)N(C)C1 [lincomycin],Resistance of culture to antibiotic,[57]; disc 2 mcg,resistant
CO[C@H]1C[C@H](O[C@H]2[C@H](C)[C@@H](O[C@@H]3O[C@H](C)C[C@H](N(C)C)[C@H]3O)[C@@H](C)C[C@@]3(CO3)C(=O)[C@H](C)[C@@H](O)[C@@H](C)[C@@H](C)OC(=O)[C@@H]2C)O[C@@H](C)[C@@H]1O [oleandomycin],Resistance of culture to antibiotic,[57]; disc 15 mcg,sensitive
CC1(C)S[C@@H]2[C@H](NC(=O)Cc3ccccc3)C(=O)N2[C@H]1C(=O)O [penicillin G],Resistance of culture to antibiotic,[57]; disc 10 units,resistant
